Test results: patent US6949574B2 (Bristol-Myers Squibb Company, priority 2002, dated 2005)
Like-named read-outs stand apart in the source and are kept apart here.

Biological target: T1, human FAAH (Homo sapiens, UniProt O00519)
T1 construct: expressed in transfected cells; host or cells: H4 cells (H4-FAAH, Geneticin-selected); crude membrane homogenates
T1 sequence (O00519 1-579): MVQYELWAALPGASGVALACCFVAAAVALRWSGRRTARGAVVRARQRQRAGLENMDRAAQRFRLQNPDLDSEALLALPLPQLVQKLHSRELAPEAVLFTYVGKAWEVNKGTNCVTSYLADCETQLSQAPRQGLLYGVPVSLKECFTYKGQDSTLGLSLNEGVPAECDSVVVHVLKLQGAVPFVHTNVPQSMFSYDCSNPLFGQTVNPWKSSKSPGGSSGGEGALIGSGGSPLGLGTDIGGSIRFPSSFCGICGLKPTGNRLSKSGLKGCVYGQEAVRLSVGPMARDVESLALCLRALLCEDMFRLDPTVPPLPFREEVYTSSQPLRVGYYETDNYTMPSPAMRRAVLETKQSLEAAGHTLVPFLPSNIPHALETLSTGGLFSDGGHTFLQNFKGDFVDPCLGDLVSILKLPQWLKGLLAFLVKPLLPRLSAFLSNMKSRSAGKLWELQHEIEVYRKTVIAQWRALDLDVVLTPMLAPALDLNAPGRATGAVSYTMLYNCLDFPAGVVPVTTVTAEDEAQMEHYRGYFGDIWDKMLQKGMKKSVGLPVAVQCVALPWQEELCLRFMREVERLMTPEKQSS
Assay: FAAH activity in membrane homogenates of H4-FAAH cells, [3H]-anandamide hydrolysis
Format: biochemical
Procedure, shortened: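 Membranes (240 ng protein) from H4 cells expressing transfected human FAAH, incubated 1 h at room temperature in 125 mM Tris-Cl, pH 9.0, with 1.67 nM [3H]-anandamide plus 10 μM anandamide. Aqueous [3H]-ethanolamine counted after methanol/dichloroethane extraction; background set with 10 μM ATFMK. IC50 from four-parameter logistic fit.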

[1] = H4-FAAH cell membranes, 10 μM anandamide, room temperature, one hour, read-out: IC50

| SMILES | IC50 [1] [nM] | IC50 [nM] |
| --- | --- | --- |
| CCCCCCCCCOc1ccc(NC(=O)O/N=C/c2cc(C(F)(F)F)ccc2F)cc1 [Example 57, 2-Fluoro-5-(trifluoromethyl)benzaldehyde, O-[[(4-nonyloxyphenyl)amino]carbonyl]oxime] | < 10 | – |
| CCCCOc1ccc(NC(=O)Oc2ccc(F)cc2)cc1 [Example 108, 4-Butoxyphenylcarbamic acid, 4-fluorophenyl ester] | 101 to 500 | – |
| CCCCCCCCCOc1ccc(NC(=O)O/N=C/c2ccc(F)c(F)c2)cc1 [Example 49, 3,4-Difluorobenzaldehyde, O-[[(4-nonyloxyphenyl)amino]carbonyl]oxime] | < 10 | – |
| CCCCCCCCCCOc1ccc(NC(=O)Oc2ccccc2F)cc1 [Example 102, 4-Decyloxyphenylcarbamic acid, 2-fluorophenyl ester] | < 10 | – |
| CCCCCCCCC(=O)Nc1ccc(NC(=O)O/N=C/c2ccc(F)cc2)cc1 [Example 137, 4-Fluorobenzaldehyde, O-[[(4-Nonanoylamino-phenyl)amino]carbonyl]oxime] | 10 to 100 | – |
| CCCCCCCCCCCCOc1ccc(NC(=O)Oc2ccccc2)cc1 [Example 105, 4-Dodecyloxyphenylcarbamic acid, phenyl ester] | < 10 | – |
| CCCCOc1ccc(CNC(=O)Oc2ccc(OC)cc2)cc1 [Example 113, 4-(Butoxyphenylmethyl)carbamic acid, 4-methoxyphenyl ester] | < 10 | – |
| CCc1ccc(-c2ccc(NC(=O)O/N=C/c3ccccc3)cc2)cc1 [Example 74, Benzaldehyde, O-[[(4′-ethyl-[1,1′-biphenyl]-4-yl)amino]carbonyl]oxime] | < 10 | – |
| O=C(Nc1ccc(OCc2ccccc2)cc1)O/N=C/c1ccccc1 [Example 84, Benzaldehyde, O-[[[4-(phenylmethoxy)phenyl]amino]carbonyl]oxime] | < 10 | – |
| CCCCCCCOc1ccc(NC(=O)Oc2ccccc2F)cc1 [Example 97, 4-Heptyloxyphenylcarbamic acid, 2-fluorophenyl ester] | 10 to 100 | – |
| CCCCOc1ccc(NC(=O)O/N=C(/C)Cl)cc1 [Example 155, (1Z)-N-[[[(4-butoxyphenyl)amino]carbonyl]oxy]ethanimidoyl chloride] | < 10 | – |
| CCCCCCCCCCCCOc1ccc(NC(=O)O/N=C/c2cccnc2)cc1 [Example 43, 3-Pyridinecarboxaldehyde, O-[[(4-dodecyloxyphenyl)amino]carbonyl]oxime] | < 10 | – |
| CCCCOc1cccc(NC(=O)O/N=C/c2cccnc2)c1 [Example 65, 3-Pyridinecarboxaldehyde, O-[[(3-butoxyphenyl)amino]carbonyl]oxime] | 10 to 100 | – |
| O=C(Nc1ccc(Oc2cccnc2)cc1)O/N=C/c1ccc(F)cc1 [Example 150, 4-Fluorobenzaldehyde, O-[[[4-[(3-pyridinyl)oxy]phenyl]amino]carbonyl]oxime] | < 10 | – |
| CCCCCCCCCCCOc1ccc(NC(=O)Oc2ccccc2)cc1 [Example 103, 4-Undecyloxyphenylcarbamic acid, phenyl ester] | – | < 10 |
| CCCCOc1ccc(NC(=O)Oc2ccc(F)c(F)c2)cc1 [Example 109, 4-Butoxyphenylcarbamic acid, 3,4-difluorophenyl ester] | > 500 | – |
| CCCCCCCCCOc1ccc(NC(=O)O/N=C/c2ccc(F)cc2F)cc1 [Example 51, 2,4-Difluorobenzaldehyde, O-[[(4-nonyloxyphenyl)amino]carbonyl]oxime] | < 10 | – |
| O=C(Nc1cccc(Oc2ccccc2)c1)O/N=C/c1ccc(F)cc1 [Example 88, 4-Fluorobenzaldehyde, O-[[(3-phenoxyphenyl)amino]carbonyl]oxime] | < 10 | – |
| CCCCCCCCCOc1ccc(NC(=O)O/N=C/c2ccccc2)cc1 [Example 47, Benzaldehyde, O-[[(4-nonyloxyphenyl)amino]carbonyl]oxime] | < 10 | – |
| CCCOc1ccc(NC(=O)O/N=C/c2ccc(F)cc2)cc1 [Example 13, 4-Fluorobenzaldehyde, O-[[(4-propoxyphenyl)amino]carbonyl]oxime] | 10 to 100 | – |
| CCCCCCCCCCCCOc1ccc(NC(=O)ON=C(C)C)cc1 [Example 40, 2-Propanone, O-[[(4-dodecyloxyphenyl)amino]carbonyl]oxime] | < 10 | – |
| O=C(Nc1ccc(-c2ccccc2)cc1)O/N=C/c1ccccc1 [Example 72, Benzaldehyde, O-[[([1,1′-biphenyl]-4-yl)amino]carbonyl]oxime] | 10 to 100 | – |
| CCCCCCCCOc1ccc(NC(=O)O/N=C/c2ccc(F)cc2)cc1 [Example 46, 4-Fluorobenzaldehyde, O-[[(4-octyloxyphenyl)amino]carbonyl]oxime] | < 10 | – |

| SMILES | IC50 [1] [nM] | IC50 [nM] |
| --- | --- | --- |
| CCCCCCCCCOc1ccc(NC(=O)O/N=C/c2ccc(C(F)(F)F)cc2)cc1 [Example 53, 4-(Trifluoromethyl)benzaldehyde, O-[[(4-nonyloxyphenyl)amino]carbonyl]oxime] | < 10 | – |
| O=C(Nc1ccc(OCCCN2CCOCC2)cc1)O/N=C/c1ccc(F)cc1 [Example 58, 4-Fluorobenzaldehyde, O-[[4-[3-(4-morpholinyl)propoxyphenyl]amino]carbonyl]oxime] | > 500 | – |
| CCCCCCCCCOc1ccc(NC(=O)O/N=C/c2ccc(F)cc2)cc1 [Example 48, 4-Fluorobenzaldehyde, O-[[(4-nonyloxyphenyl)amino]carbonyl]oxime] | < 10 | – |
| CCCCOc1ccc(CNC(=O)Oc2cccc(Cl)c2)cc1 [Example 122, 4-(Butoxyphenylmethyl)carbamic acid, 3-chlorophenyl ester] | 10 to 100 | – |
| O=C(Nc1ccc(Oc2ccncc2)cc1)O/N=C/c1ccc(F)cc1 [Example 146, 4-Fluorobenzaldehyde, O-[[[4-[(4-pyridinyl)oxy]phenyl]amino]carbonyl]oxime] | 101 to 500 | – |
| CCCCOc1ccc(CNC(=O)Oc2cccnc2)cc1 [Example 2, (4-Butoxyphenyl)methylcarbamic acid, 3-pyridinyl ester] | < 10 | – |
| O=C(Nc1ccc(Oc2ccccn2)cc1)O/N=C/c1cccnc1 [Example 147, 3-Pyridinecarboxaldehyde, O-[[[4-[(2-pyridinyl)oxy]phenyl]amino]carbonyl]oxime] | 101 to 500 | – |
| CCCCOc1cccc(NC(=O)ON=C(C)C)c1 [Example 66, 2-Propanone, O-[[(3-butoxyphenyl)amino]carbonyl]oxime] | – | > 500 |
| CCc1ccc(-c2ccc(NC(=O)Oc3ccccc3F)cc2)cc1 [Example 124, 4′-Ethyl-[1,1′-biphenyl]-4-ylcarbamic acid, 2-fluorophenyl ester] | – | > 500 |
| O=C(Nc1cccc(Oc2ccccc2)c1)O/N=C/c1ccccc1 [Example 91, Benzaldehyde, O-[[(3-phenoxyphenyl)amino]carbonyl]oxime] | < 10 | – |
| CCCCCCCCCCCCOc1ccc(NC(=O)O/N=C/c2ccccc2)cc1 [Example 41, Benzaldehyde, O-[[(4-dodecyloxyphenyl)amino]carbonyl]oxime] | < 10 | – |
| CCCCCCCOc1ccc(NC(=O)O/N=C/c2cccnc2)cc1 [Example 1, 3-Pyridinecarboxaldehyde, O-[[[4-(Heptyloxy)phenyl]amino]carbonyl]oxime] | < 10 | – |
| CCCCCCCCCOc1ccc(NC(=O)ON=C(C)C)cc1 [Example 31, 2-Propanone, O-[[(4-nonyloxyphenyl)amino]carbonyl]oxime] | < 10 | – |
| CCCCCCCCCCCOc1ccc(NC(=O)O/N=C/c2ccc(F)cc2)cc1 [Example 38, 4-Fluorobenzaldehyde, O-[[(4-undecyloxyphenyl)amino]carbonyl]oxime] | < 10 | – |
| CCCCOc1ccc(NC(=O)ON=C(C)C)cc1OC [Example 18, 2-Propanone, O-[[(4-butoxy-3-methoxyphenyl)amino]carbonyl]oxime] | > 500 | – |
| CCCCOc1ccc(CNC(=O)Oc2cccc3ccccc23)cc1 [Example 115, 4-(Butoxyphenylmethyl)carbamic acid, 1-naphthalenyl ester] | 10 to 100 | – |
| CCCOc1ccc(NC(=O)ON=C(C)C)cc1 [Example 7, 2-Propanone, O-[[(4-propoxyphenyl)amino]carbonyl]oxime] | 101 to 500 | – |
| O=C(Nc1ccc(-c2ccccc2)cc1)O/N=C/c1cccnc1 [Example 69, 3-Pyridinecarboxaldehyde, O-[[([1,1′-biphenyl]-4-yl)amino]carbonyl]oxime] | 10 to 100 | – |
| CCCCCOc1ccc(NC(=O)O/N=C/c2ccccc2)cc1 [Example 11, Benzaldehyde, O-[[(4-pentyloxyphenyl)amino]carbonyl]oxime] | – | < 10 |
| CCCCCCCCCCOc1ccc(NC(=O)O/N=C/c2cccnc2)cc1 [Example 35, 3-Pyridinecarboxaldehyde, O-[[(4-decyloxyphenyl)amino]carbonyl]oxime] | < 10 | – |
| CCCCCCCOc1ccc(NC(=O)O/N=C/c2ccc(F)cc2)cc1 [Example 28, 4-Fluorobenzaldehyde, O-[[(4-heptyloxyphenyl)amino]carbonyl]oxime] | < 10 | – |
| CCCCCCOc1ccc(NC(=O)O/N=C/c2ccccc2)cc1 [Example 23, Benzaldehyde, O-[[(4-hexyloxyphenyl)amino]carbonyl]oxime] | < 10 | – |
